Assays:
Type in all cases: in vivo
[1] = test system: Brachiaria plantaginea (BRAPL); test: Experiment 1: field experiment, post-emergence spray, % control 29 days after application
Method: (§1) Duplicate 12m² plots were sprayed post-emergence with 250g or 500g/ha Compound 1 (in a composition according to Example 1 as described hereinafter) or 1500g/ha atrazine (in a commercial aqueous suspension concentrate formulation containing 500g/l w/v atrazine or a combination (as a tank mix) of the two herbicides in a volume of 300 litres/ha. The following control figures were recorded on the grass weeds Brachiaria plantaginea (BRAPL), Digitaria horizontalis (DIGHO) and Eleusine indica (ELEIN) 29 days after application.

Eleusine indica (ELEIN) = test: as above
Method: as §1

[2] = test system: Digitaria horizontalis (DIGHO); test: as above
Method: as §1

Amaranthus retroflexus = test: Experiment 3: glasshouse, post-emergence, fresh weight after 19 days, % inhibition of growth; details: 2 leaves; for inhibition at 2 g/ha / inhibition at 4 g/ha / inhibition at 8 g/ha / inhibition at 16 g/ha / inhibition at 31 g/ha / inhibition at 63 g/ha: Amaranthus retroflexus, post-emergence
Method: (§2) A series of experiments was carried out to determine the nature of the biological interaction between atrazine and five compounds of general formula I on a range of weed species. […] The growth stages of the plants at spraying are also presented with the results. Agricultural surfactant (nonyl phenol ethylene oxide condensate containing 9 moles ethylene oxide marketed as 'Agral') was added to all spray dilutions to give 0.2% v/v concentration. […] After 19 days the fresh weight of vegetation in each pot was determined. […] E = […]00003:character} where E, X and Y are percentage inhibition of growth. In addition, the ED50 or ED90 values (the application rates giving 50% or 90% inhibition of growth, respectively) were calculated from the results for the piperidinedione alone and with increasing rates of atrazine.

Solanum nigrum = test: as above; details: for inhibition at 2 g/ha / inhibition at 4 g/ha / inhibition at 8 g/ha / inhibition at 16 g/ha / inhibition at 31 g/ha / inhibition at 63 g/ha: Solanum nigrum, post-emergence
Method: as §2

Brassica kaber [3] = test: as above; details: 2 leaves; for inhibition at 2 g/ha / inhibition at 4 g/ha / inhibition at 8 g/ha / inhibition at 16 g/ha / inhibition at 31 g/ha / inhibition at 63 g/ha: Mutarda arvensis, post-emergence
Method: as §2

Brassica kaber [4] = test: Experiment 4: glasshouse, pre-emergence, fresh weight after 27 days, % inhibition of growth; details: for % inhibition of growth: Atrazine 0 g/ha
Method: (§3) Glasshouse experiments showing the biological interaction between atrazine and Compound 99 on weed species when applied pre-emergence. […] After 27 days the fresh weight of vegetation in each pot was determined. […] E = […]00005:character} where E, X and Y are percentage inhibition of growth. In addition the ED90 values (the application rate giving 90% inhibition of growth) were calculated from the results for Compound 99 alone and with increasing rates of atrazine. The ED90 values were then used to plot an isobole for each species according to the method of […] op cit. The results of percentage inhibition of growth, the ED values calculated from them and the calculated expected values are given in Table 8.

Sida spinosa = test: as above; details: for % inhibition of growth: Atrazine 0 g/ha
Method: as §3

Structure (SMILES): CC1(C)CC(=O)C(C(=O)c2ccc(Cl)cc2[N+](=O)[O-])C(=O)N1 (stereo not drawn) [Compound 1, 3-(4-chloro-2-nitrobenzoyl)-6,6-dimethylpiperidine-2,4-dione]
- % control observed ([1]; Compound 1 @ 250g/ha): 60%
- % control observed ([1]; Compound 1 @ 500g/ha): 80%
- % control observed (Eleusine indica (ELEIN); Compound 1 @ 250g/ha): 70%
- % control observed (Eleusine indica (ELEIN); Compound 1 @ 500g/ha): 80%
- % control observed ([2]; Compound 1 @ 250g/ha): 70%
- % control observed ([2]; Compound 1 @ 500g/ha): 80%
- inhibition at 2 g/ha (Amaranthus retroflexus; Compound 1 2 g/ha alone): 25%
- inhibition at 4 g/ha (Amaranthus retroflexus; Compound 1 4 g/ha alone): 52%
- inhibition at 8 g/ha (Amaranthus retroflexus; Compound 1 8 g/ha alone): 73%
- inhibition at 16 g/ha (Amaranthus retroflexus; Compound 1 16 g/ha alone): 87%
- inhibition at 31 g/ha (Amaranthus retroflexus; Compound 1 31 g/ha alone): 95%
- inhibition at 63 g/ha (Amaranthus retroflexus; Compound 1 63 g/ha alone): 96%
- ED₉₀ (Amaranthus retroflexus; Compound 1 alone): ED₉₀(g/ha) 22.58

Structure (SMILES): CS(=O)(=O)c1ccc(C(=O)C2C(=O)CCNC2=O)c([N+](=O)[O-])c1 (stereo not drawn) [Compound 110, 3-(4-methylsulphonyl-2-nitrobenzoyl)piperidine-2,4-dione]
- ED₉₀ (Solanum nigrum; Compound 110 alone, 1 leaf): ED₉₀(g/ha) 5.87
- inhibition at 2 g/ha (Solanum nigrum; Compound 110 2 g/ha alone, 1 leaf): 38%
- inhibition at 4 g/ha (Solanum nigrum; Compound 110 4 g/ha alone, 1 leaf): 80%
- inhibition at 8 g/ha (Solanum nigrum; Compound 110 8 g/ha alone, 1 leaf): 98%
- inhibition at 16 g/ha (Solanum nigrum; Compound 110 16 g/ha alone, 1 leaf): 100%
- inhibition at 31 g/ha (Solanum nigrum; Compound 110 31 g/ha alone, 1 leaf): 100%
- inhibition at 63 g/ha (Solanum nigrum; Compound 110 63 g/ha alone, 1 leaf): 100%
- ED₉₀ (Brassica kaber [3]; Compound 110 alone): ED₉₀(g/ha) 6.38
- inhibition at 2 g/ha (Brassica kaber [3]; Compound 110 2 g/ha alone): 45%
- inhibition at 4 g/ha (Brassica kaber [3]; Compound 110 4 g/ha alone): 84%
- inhibition at 8 g/ha (Brassica kaber [3]; Compound 110 8 g/ha alone): 98%
- inhibition at 16 g/ha (Brassica kaber [3]; Compound 110 16 g/ha alone): 99%
- inhibition at 31 g/ha (Brassica kaber [3]; Compound 110 31 g/ha alone): 100%
- inhibition at 63 g/ha (Brassica kaber [3]; Compound 110 63 g/ha alone): 100%

Structure (SMILES): CS(=O)(=O)c1ccc(C(=O)C2C(=O)CCNC2=O)c(Cl)c1 (stereo not drawn) [Compound 126, 3-(2-chloro-4-methylsulphonylbenzoyl)piperidine-2,4-dione]
- ED₉₀ (Solanum nigrum; Compound 126 alone, 2 leaves): ED₉₀(g/ha)4.18
- inhibition at 2 g/ha (Solanum nigrum; Compound 126 2 g/ha alone, 2 leaves): 72%
- inhibition at 4 g/ha (Solanum nigrum; Compound 126 4 g/ha alone, 2 leaves): 90%
- inhibition at 8 g/ha (Solanum nigrum; Compound 126 8 g/ha alone, 2 leaves): 97%
- inhibition at 16 g/ha (Solanum nigrum; Compound 126 16 g/ha alone, 2 leaves): 100%
- inhibition at 31 g/ha (Solanum nigrum; Compound 126 31 g/ha alone, 2 leaves): 100%
- inhibition at 63 g/ha (Solanum nigrum; Compound 126 63 g/ha alone, 2 leaves): 100%
- ED₅₀ (Brassica kaber [3]; Compound 126 alone): ED₅₀(g/ha) 28.09
- inhibition at 2 g/ha (Brassica kaber [3]; Compound 126 2 g/ha alone): 0%
- inhibition at 4 g/ha (Brassica kaber [3]; Compound 126 4 g/ha alone): 0%
- inhibition at 8 g/ha (Brassica kaber [3]; Compound 126 8 g/ha alone): 0%
- inhibition at 16 g/ha (Brassica kaber [3]; Compound 126 16 g/ha alone): 42%
- inhibition at 31 g/ha (Brassica kaber [3]; Compound 126 31 g/ha alone): 69%
- inhibition at 63 g/ha (Brassica kaber [3]; Compound 126 63 g/ha alone): 66%

Structure (SMILES): CC1(C)CC(=O)C(C(=O)c2ccc(C(F)(F)F)cc2[N+](=O)[O-])C(=O)N1 (stereo not drawn) [Compound 99, 3-(2-nitro-4-trifluoromethylbenzoyl)-6,6-dimethylpiperidine-2,4-dione]
- % inhibition of growth (Brassica kaber [4]; Compound 99 8 g/ha): 0%
- % inhibition of growth (Brassica kaber [4]; Compound 99 16 g/ha): 9%
- % inhibition of growth (Brassica kaber [4]; Compound 99 31 g/ha): 10%
- % inhibition of growth (Brassica kaber [4]; Compound 99 63 g/ha): 32%
- % inhibition of growth (Brassica kaber [4]; Compound 99 125 g/ha): 20%
- % inhibition of growth (Brassica kaber [4]; Compound 99 250 g/ha): 90%
- ED₉₀ (Brassica kaber [4]; Compound 99 alone): ED₉₀(g/ha) 340.34
- % inhibition of growth (Sida spinosa; Compound 99 8 g/ha): 0%
- % inhibition of growth (Sida spinosa; Compound 99 16 g/ha): 17%
- % inhibition of growth (Sida spinosa; Compound 99 31 g/ha): 26%
- % inhibition of growth (Sida spinosa; Compound 99 63 g/ha): 52%
- % inhibition of growth (Sida spinosa; Compound 99 125 g/ha): 88%
- % inhibition of growth (Sida spinosa; Compound 99 250 g/ha): 97%
- ED₉₀ (Sida spinosa; Compound 99 alone): ED₉₀(g/ha) 146.26
- ED₉₀ (Brassica kaber [3]; Compound 99 alone): ED₉₀(g/ha) 31
- inhibition at 2 g/ha (Brassica kaber [3]; Compound 99 2 g/ha alone): 22%
- inhibition at 4 g/ha (Brassica kaber [3]; Compound 99 4 g/ha alone): 40%
- inhibition at 8 g/ha (Brassica kaber [3]; Compound 99 8 g/ha alone): 69%
- inhibition at 16 g/ha (Brassica kaber [3]; Compound 99 16 g/ha alone): 58%
- inhibition at 31 g/ha (Brassica kaber [3]; Compound 99 31 g/ha alone): 91%
- inhibition at 63 g/ha (Brassica kaber [3]; Compound 99 63 g/ha alone): 91%
- inhibition at 2 g/ha (Amaranthus retroflexus; Compound 99 2 g/ha alone): 37%
- inhibition at 4 g/ha (Amaranthus retroflexus; Compound 99 4 g/ha alone): 85%
- inhibition at 8 g/ha (Amaranthus retroflexus; Compound 99 8 g/ha alone): 88%
- inhibition at 16 g/ha (Amaranthus retroflexus; Compound 99 16 g/ha alone): 80%
- inhibition at 31 g/ha (Amaranthus retroflexus; Compound 99 31 g/ha alone): 91%
- inhibition at 63 g/ha (Amaranthus retroflexus; Compound 99 63 g/ha alone): 98%
- ED₉₀ (Amaranthus retroflexus; Compound 99 alone): ED₉₀(g/ha) 14
